According to ChEMBL document CHEMBL3885861, “Open TG-GATES”:

Species: Rattus norvegicus
Assay: Open TG-GATES - Regimen: Daily Repeat
Type: toxicity, organism-based, Sprague-Dawley
Parameters: regimen Daily Repeat, gender Male, age 6 weeks
Conditions: in vivo, po, 0 mg/kg, […], route gavage, dose level Control; for KIDNEY_L / KIDNEY_R / KIDNEY_TOTAL: tissue Kidney; for LIVER: tissue Liver; for A/G / ALP / ALT / AST / BUN / CRE / Ca / Cl / DBIL / GLC / IP / K / LDH / Na / PL / RALB / TBIL / TC / TG / TP / gamma-GTP: tissue Plasma

## CC(C)NNC(=O)c1ccncc1 [IPRONIAZID]
Tissue Blood, time 28 day
  Lym: 81.6%
  MCH: 19.7 pg
  MCHC: 35.6%
  MCV: 55.2 fL
  Mono: 1.8%
  Neu: 14.6%
  PT: 15.8 s
  Plat: 108.3 x10_4/uL
  RBC: 741.4 x10_4/ul
  Ret: 3%
  WBC: 103.1 x10_2/uL
Time 7 day
  KIDNEY_L: 1 g
  KIDNEY_R: 1 g
  KIDNEY_TOTAL: 2 g
  LIVER: 11.2 g
  A/G: 1.1
  ALP: 1693 IU/L
  ALT: 46.6 IU/L
  AST: 77.8 IU/L
  BUN: 19.2 mg/dL
  CRE: 0.2 mg/dL
  Ca: 10.6 mg/dL
  Cl: 106.4 meq/L
  DBIL: 0 mg/dL
  GLC: 198.4 mg/dL
  IP: 6.8 mg/dL
  K: 4 meq/L
  LDH: 220.4 IU/L
  Na: 141.2 meq/L
  PL: 156.2 mg/dL
  RALB: 2.9 g/dL
  TBIL: 0.002 mg/dL
  TC: 77.4 mg/dL
  TG: 110.6 mg/dL
  TP: 5.5 g/dL
  gamma-GTP: 1.2 IU/L
Time 14 day
  KIDNEY_L: 1.1 g
  KIDNEY_R: 1.1 g
  KIDNEY_TOTAL: 2.1 g
  LIVER: 11.8 g
  A/G: 1.1
  ALP: 1298.6 IU/L
  ALT: 35.8 IU/L
  AST: 68.4 IU/L
  BUN: 20.2 mg/dL
  CRE: 0.2 mg/dL
  Ca: 10.5 mg/dL
  Cl: 107.4 meq/L
  DBIL: 0 mg/dL
  GLC: 187.4 mg/dL
  IP: 5.9 mg/dL
  K: 4 meq/L
  LDH: 176.8 IU/L
  Na: 141.8 meq/L
  PL: 135.2 mg/dL
  RALB: 3 g/dL
  TBIL: 0.006 mg/dL
  TC: 66.8 mg/dL
  TG: 126.6 mg/dL
  TP: 5.7 g/dL
  gamma-GTP: 1.6 IU/L
Time 28 day
  KIDNEY_L: 1.4 g
  KIDNEY_R: 1.4 g
  KIDNEY_TOTAL: 2.8 g
  LIVER: 15.8 g
  A/G: 1.1
  ALP: 1067.8 IU/L
  ALT: 38.8 IU/L
  AST: 65.4 IU/L
  BUN: 17.4 mg/dL
  CRE: 0.2 mg/dL
  Ca: 10.7 mg/dL
  Cl: 105.2 meq/L
  DBIL: 0.002 mg/dL
  GLC: 190.8 mg/dL
  IP: 6.6 mg/dL
  K: 4 meq/L
  LDH: 171.2 IU/L
  Na: 142 meq/L
  PL: 142.4 mg/dL
  RALB: 3.2 g/dL
  TBIL: 0.014 mg/dL
  TC: 70.8 mg/dL
  TG: 137.6 mg/dL
  TP: 6.1 g/dL
  gamma-GTP: 1.6 IU/L
